According to patent US20220289794A1, “SYNTHETIC ANTIMICROBIAL PEPTIDES” (priority 2019, published 2022):
Converted amounts (≈) assume the structure as drawn. Read-outs that look alike come from different tables or passages of the source. Non-standard residues stand in square brackets, D forms with d. Residues, ends and D or L forms follow the SMILES beside them. 2Nal = N[C@@H](Cc1ccc2ccccc2c1)C(=O)O

Assays:
[1] = test system: Pseudomonas aeruginosa (ATCC 27883)
[2] = test system: Escherichia coli (ATCC 25922)
[3] = test system: Methicillin-resistant Staphylococcus aureus MRSA (ATCC BAA-1556)
in vitro = details: human, fresh human red blood cells (washed), pH 7.4
[4] = test system: Enterococcus faecium ATCC 27270; details: E. faecium ATCC 27270
B. subtilis (ATCC-6633) = assay: Broad-spectrum activity against Gram-Positive bacteria (MIC); assay type: cell-based; set-up: unit not given here
B. cereus (ATCC-13061) = assay: as above; assay type: cell-based; set-up: unit not given here
[5] = test system: Klebsiella pneumoniae (ATCC BAA-1705); details: Table 16, Gram-negative panel
[6] = test system: Enterococcus faecalis ATCC 29212; details: E. faecalis ATCC 29212
[7] = test system: Enterococcus faecium ATCC 700221; details: E. faecium ATCC 700221
[8] = test system: P. aeruginosa (ATCC 10145); assay: Broad-spectrum activity against Gram-Negative bacteria (MIC); assay type: cell-based; details: Table 16, Gram-negative panel
[9] = test system: Klebsiella pneumoniae ATCC 13883; details: Table 16, Gram-negative panel
[10] = test system: Streptococcus pneumoniae ATCC 51938; details: S. pneumoniae ATCC 51938
[11] = test system: Enterococcus faecalis ATCC 51575; details: E. faecalis ATCC 51575
[12] = test system: A. baumannii (ATCC BAA-1605); assay: Broad-spectrum activity against Gram-Negative bacteria (MIC); assay type: cell-based; details: Table 16, Gram-negative panel
[13] = test system: P. aeruginosa (ATCC BAA-1744); assay: as above; assay type: cell-based; details: Table 16, Gram-negative panel
[14] = test system: Streptococcus pneumoniae ATCC 49619; details: S. pneumoniae ATCC 49619
E. coli (ATCC BAA-2452) = assay: Broad-spectrum activity against Gram-Negative bacteria (MIC); assay type: cell-based; details: Table 16, Gram-negative panel

Row | Molecule | Broad-spectrum activity E. faecium (ATCC 27270) [4] | MIC S. aureus ATCC 29213 (S. aureus ATCC 29213; S. aureus ATCC 29213) | Broad-spectrum activity B. subtilis (ATCC-6633) (B. subtilis (ATCC-6633)) | Broad-spectrum activity B. cereus (ATCC-13061) (B. cereus (ATCC-13061)) | MIC P. aeruginosa ATCC 27883 ([1]; P. aeruginosa ATCC 27883) | MIC K. pneumonia (ATCC BAA-1705) [5] | Broad-spectrum activity E. faecalis (ATCC 29212) [6] | MIC E. coli ATCC 25922 ([2]; E. coli ATCC 25922) | Broad-spectrum activity E. faecium (ATCC 700221) [7] | MIC P. aeruginosa (ATCC 10145) [8] | MIC K. pneumonia (ATCC 13883) [9] | MIC MRSA ATCC BAA-1556 ([3]; MRSA ATCC BAA-1556) | Broad-spectrum activity S. pneumoniae (ATCC 51938) [10] | Broad-spectrum activity E. faecalis (ATCC 51575) [11] | MIC A. baumannii (ATCC BAA-1605) [12] | MIC P. aeruginosa (ATCC BAA-1744) [13] | Broad-spectrum activity S. pneumoniae (ATCC 49619) [14] | MIC E. coli (ATCC BAA-2452) (E. coli (ATCC BAA-2452)) | other results
1 | NCCCC[C@H]1NC(=O)[C@H](Cc2ccc3ccccc3c2)NC(=O)[C@H](Cc2ccc3ccccc3c2)NC(=O)[C@H](Cc2c[nH]c3ccccc23)NC(=O)[C@@H](CCCCN)NC(=O)[C@@H](CCCCN)NC(=O)[C@@H](CCCCN)NC(=O)[C@@H](CCCCN)NC1=O [IFX-134, c[lys-lys-lys-lys-lys-Trp-NaI-NaI]] (cyclo([2Nal][2Nal][dK][dK][dK][dK][dK]W)) |  |  |  |  |  |  |  |  |  |  |  |  |  |  |  |  |  |  | MIC S. aureus ATCC 29213 (S. aureus ATCC 29213; ATCC 29213): 12.5 µg/mL (≈ 10.2 µM); MIC P. aeruginosa ATCC 27883 ([1]; ATCC 27883): 128 µg/mL (≈ 105 µM); MIC E. coli ATCC 25922 ([2]; ATCC 25922): 128 µg/mL (≈ 105 µM); MIC MRSA ATCC BAA-1556 ([3]; ATCC BAA-1556): 12.5 µg/mL (≈ 10.2 µM); HC50 at 0.5 h (in vitro): 890 µg/mL
2 | c[Arg-Arg-Arg-Arg-Dip-Dip-dip] [IFX-060] | 3.1 | 1.5 µg/mL | 1.5 | 3.1 | 12.5 µg/mL | 12.5 µg/mL | 3.1 | 6.2 µg/mL | 1.5 | 25 µg/mL | 50 µg/mL | 1.5 µg/mL | 12.5 | 12.5 | 6.2 µg/mL | 12.5 µg/mL | 25 | 12.5 µg/mL | 
3 | c[Arg-Arg-Arg-Arg-Dip-Trp-dip] [IFX-088] | 3.1 | 3.1 µg/mL | 1.5 | 6.2 | 12.5 µg/mL | 25 µg/mL | 12.5 | 12.5 µg/mL | 12.5 | 25 µg/mL | 50 µg/mL | 3.1 µg/mL | 12.5 | 12.5 | 12.5 µg/mL | 50 µg/mL | 25 | 12.5 µg/mL | 
4 | c[Arg-Arg-Arg-Arg-Dip-dip-Dip] [IFX-061] | 3.1 | 3.1 µg/mL | 1.5 | 3.1 | 12.5 µg/mL | 25 µg/mL | 6.2 | 12.5 µg/mL | 3.1 | 25 µg/mL | 50 µg/mL | 1.5 µg/mL | 12.5 | 12.5 | 6.2 µg/mL | 12.5 µg/mL | 50 | 12.5 µg/mL | 
5 | c[Arg-Arg-Arg-Arg-Dip-trp-Dip] [IFX-089] | 6.2 | 3.1 µg/mL | 3.1 | 12.5 | 12.5 µg/mL | 25 µg/mL | 12.5 | 12.5 µg/mL | 12.5 | 25 µg/mL | 50 µg/mL | 3.1 µg/mL | 25 | 12.5 | 12.5 µg/mL | 25 µg/mL | 50 | 12.5 µg/mL | 
